Experimental data taken from patent publication US20080207617A1, “Quinoline Derivatives and Quinazoline Derivatives Inhibiting Autophosphrylation of Flt3 and Medicinal Compositions Containing the Same” (KIRIN BEER KABUSHIKI KAISHA, priority 2002, published 2008).
Where a name gives a salt, the structure may show the parent alone. Values belong to the compound of their own block, whether it stands above or below them.

Columns and labels:
MOLM13 = assay: Cell growth inhibitory activities on cultured human leukemia cells MOLM-13 (WST-1); assay type: cell-based; settings: Homo sapiens, MOLM-13, 72 h, 3 days culture
Procedure: Pharmacological Test Example 4
Cell Growth Inhibitory Activities on Cultured Human Leukemia Cells
(§1) Human leukemia cells MOLM13 (subdivided from Hayashibara Biochemical Laboratories, Inc.) were seeded in an amount of 3×10^3 using a DMEM medium containing 10% fetal calf serum (purchased from GIBCO) in a 96-well flat bottom plate. A solution of a test compound in dimethyl sulfoxide was added to each well and was cultured in a 5% carbon dioxide incubator for 3 days. Three days after the initiation of the culture, 10 μl of a WST-1 solution in Cell Counting Kit (purchased from Wako Pure Chemical Industries, Ltd.) was added to each well for a color reaction. After proper color development, the absorbance was measured with a microplate reader under conditions of measurement wavelength 450 nm and reference wavelength 650 nm. The growth ratio for each well was determined by presuming the absorbance without the addition of the medicament to be 100% growth ratio and the absorbance of the well without seeding of the cells to be 0% growth ratio. The concentration of the test compound was varied on several levels, the cell growth ratio for each case was determined, and the concentration of the test compound necessary for inhibiting 50% of cell growth ratio (IC50) was calculated.

MV4-11 = assay: Cell growth inhibitory test MV4-11 (WST-1); assay type: cell-based, human; settings: Homo sapiens, MV4-11, 72 h, MV4-11 cells, 3 days culture
Procedure: Pharmacological Test Example 2
Cell Growth Inhibitory Test
MV4-11 (ATCC number: CRL-9591) as human leukemia cells was seeded in an amount of 3×10^3 using a DMEM medium containing 10% fetal calf serum (purchased from GIBCO) in a 96-well flat bottom plate.
as §1, with “A” for “Human leukemia cells MOLM13 (subdivided from Hayashibara Biochemical Laboratories, Inc.) were seeded in an amount of 3×10^3 using a DMEM medium containing 10% fetal calf serum (purchased from GIBCO) in a 96-well flat bottom plate. A”

SMILES: COc1cc2nccc(Oc3ccc(NC(=O)NCCC(C)(C)C)c(C)c3)c2cc1OC [Compound 2, 1-[4-(6,7-Dimethoxy-quinolin-4-yloxy)-2-methyl-phenyl]-3-(3,3-dimethyl-butyl)-urea]
IC50 (MOLM13): 770 nM
IC50 (MV4-11): 395 nM

SMILES: COc1cc(Oc2ccnc3cc(OC)c(OC)cc23)ccc1NC(=O)NCCC(C)(C)C [Compound 4, 1-[4-(6,7-Dimethoxy-quinolin-4-yloxy)-2-methoxy-phenyl]-3-(3,3-dimethyl-butyl)-urea]
IC50 (MOLM13): 653 nM
IC50 (MV4-11): 889 nM

SMILES: COc1cc2nccc(Oc3ccc(NC(=O)NCCC(C)(C)C)c(C)c3C)c2cc1OC [Compound 7, 1-[4-(6,7-Dimethoxy-quinolin-4-yloxy)-2,3-dimethyl-phenyl]-3-(3,3-dimethyl-butyl)-urea]
IC50 (MOLM13): 593 nM
IC50 (MV4-11): 558 nM

SMILES: COc1cc2nccc(Oc3ccc(NC(=O)NCCC(C)(C)C)c(F)c3)c2cc1OC [Compound 9, 1-[4-(6,7-Dimethoxy-quinolin-4-yloxy)-2-fluoro-phenyl]-3-(3,3-dimethyl-butyl)-urea hydrochloride]
IC50 (MOLM13): 24 nM
IC50 (MV4-11): 8 nM

SMILES: COc1cc2nccc(Oc3ccc(NC(=O)NCCC(C)(C)C)c(Cl)c3)c2cc1OC [Compound 11, 1-[2-Chloro-4-(6,7-dimethoxy-quinolin-4-yloxy)-phenyl]-3-(3,3-dimethyl-butyl)-urea hydrochloride]
IC50 (MOLM13): 416 nM
IC50 (MV4-11): 300 nM

SMILES: COc1cc2nccc(Oc3ccc(NC(=O)NCCC4CCCCC4)cc3)c2cc1OC [Compound 31, 1-(2-Cyclohexyl-ethyl)-3-[4-(6,7-dimethoxy-quinolin-4-yloxy)-phenyl]-urea]
IC50 (MOLM13): 2 nM
IC50 (MV4-11): 2 nM

SMILES: COc1cc2nccc(Oc3ccc(NC(=O)NCCCC4CCCCC4)cc3)c2cc1OC [Compound 33, 1-(3-Cyclohexyl-propyl)-3-[4-(6,7-dimethoxy-quinolin-4-yloxy)-phenyl]-urea]
IC50 (MOLM13): 4 nM
IC50 (MV4-11): 8 nM

SMILES: COc1cc2ncnc(Oc3ccc(NC(=O)NCCC(C)(C)C)cc3)c2cc1OC [Compound 36, 1-[4-(6,7-Dimethoxy-quinazolin-4-yloxy)-phenyl]-3-(3,3-dimethyl-butyl)-urea]
IC50 (MOLM13): 2 nM
IC50 (MV4-11): < 1 nM

SMILES: COc1cc2nccc(Oc3ccc(NC(=O)NCCC(C)(C)C)c([N+](=O)[O-])c3)c2cc1OC [Compound 37, 1-[2-Nitro-4-(6,7-dimethoxy-quinolin-4-yloxy)-phenyl]-3-(3,3-dimethyl-butyl)-urea]
IC50 (MOLM13): 38 nM
IC50 (MV4-11): 47 nM

SMILES: COc1cc2c(Oc3ccc(NC(=O)NCCC(C)(C)C)c(Cl)c3)ccnc2cc1OCCN1CCCCC1 [Compound 42, 1-{2-Chloro-4-[6-methoxy-7-(2-piperidin-1-yl-ethoxy)-quinolin-4-yloxy]-phenyl}-3-(3,3-dimethyl-butyl)-urea]
IC50 (MOLM13): 273 nM
IC50 (MV4-11): 235 nM

SMILES: COc1cc2c(Oc3ccc(NC(=O)NCCC(C)(C)C)c(Cl)c3)ccnc2cc1OCCN1CCCC1 [Compound 48, 1-{2-Chloro-4-[6-methoxy-7-(2-pyrrolidin-1-yl-ethoxy)-quinolin-4-yloxy]-phenyl}-3-(3,3-dimethyl-butyl)-urea]
IC50 (MV4-11): 217 nM

SMILES: COc1cc2c(Oc3ccc(NC(=O)NCCC(C)(C)C)c(Cl)c3)ccnc2cc1OCCC1CCNCC1 [Compound 49, 1-{2-Chloro-4-[6-methoxy-7-(2-piperidin-4-yl-ethoxy)-quinolin-4-yloxy]-phenyl}-3-(3,3-dimethyl-butyl)-urea]
IC50 (MOLM13): 224 nM
IC50 (MV4-11): 207 nM

SMILES: COc1cc2c(Oc3ccc(NC(=O)NCCC(C)(C)C)c(Cl)c3)ccnc2cc1OCCC1CCCCN1 (stereo not shown) [Compound 50, 1-{2-Chloro-4-[6-methoxy-7-(2-piperidin-2-yl-ethoxy)-quinolin-4-yloxy]-phenyl}-3-(3,3-dimethyl-butyl)-urea]
IC50 (MOLM13): 243 nM
IC50 (MV4-11): 224 nM

SMILES: COc1cc2c(Oc3ccc(NC(=O)NCCC(C)(C)C)c(Cl)c3)ccnc2cc1OCCN1CCC(C)CC1 [Compound 51, 1-(2-Chloro-4-{6-methoxy-7-[2-(4-methyl-piperidin-1-yl)-ethoxy]-quinolin-4-yloxy}-phenyl)-3-(3,3-dimethyl-butyl)-urea]
IC50 (MOLM13): 216 nM
IC50 (MV4-11): 211 nM

SMILES: COc1cc2c(Oc3ccc(NC(=O)NCCC(C)(C)C)c(Cl)c3)ccnc2cc1OCCCN1CCC(C)CC1 [Compound 52, 1-(2-Chloro-4-{6-methoxy-7-[3-(4-methyl-piperidin-1-yl)-propoxy]-quinolin-4-yloxy}-phenyl)-3-(3,3-dimethyl-butyl)-urea]
IC50 (MOLM13): 188 nM
IC50 (MV4-11): 184 nM

SMILES: COc1cc2c(Oc3ccc(NC(=O)NCCC4CCCC4)cc3F)ccnc2cc1OCCN1CCCCC1 [Compound 59, 1-(2-Cyclopentyl-ethyl)-3-{3-fluoro-4-[6-methoxy-7-(2-piperidin-1-yl-ethoxy)-quinolin-4-yloxy]-phenyl}-urea]
IC50 (MOLM13): 4 nM
IC50 (MV4-11): 2 nM

Continued, values first:

IC50 (MOLM13): 10 nM
IC50 (MV4-11): 6 nM
SMILES: CCCCNC(=O)Nc1ccc(Oc2ccnc3cc(OC)c(OC)cc23)cc1 [Compound 19, 1-Butyl 3-[4-(6,7-dimethoxy-quinolin-4-yloxy)-phenyl]-urea]

IC50 (MOLM13): 39 nM
IC50 (MV4-11): 31 nM
SMILES: COc1cc2nccc(Oc3ccc(NC(=O)NC(C)C)cc3)c2cc1OC [Compound 20, 1-[4-(6,7-Dimethoxy-quinolin-4-yloxy)-phenyl]-3-isopropyl-urea]

IC50 (MOLM13): 22 nM
IC50 (MV4-11): 31 nM
SMILES: CCCNC(=O)Nc1ccc(Oc2ccnc3cc(OC)c(OC)cc23)cc1 [Compound 21, 1-[4-(6,7-Dimethoxy-quinolin-4-yloxy)-phenyl]-3-propyl-urea]

IC50 (MOLM13): 7 nM
IC50 (MV4-11): 4 nM
SMILES: CCCCCCNC(=O)Nc1ccc(Oc2ccnc3cc(OC)c(OC)cc23)cc1 [Compound 22, 1-[4-(6,7-Dimethoxy-quinolin-4-yloxy)-phenyl]-3-hexyl-urea]

IC50 (MOLM13): 4 nM
IC50 (MV4-11): 2 nM
SMILES: CCCCCNC(=O)Nc1ccc(Oc2ccnc3cc(OC)c(OC)cc23)cc1 [Compound 23, 1-[4-(6,7-Dimethoxy-quinolin-4-yloxy)-phenyl]-3-pentyl-urea]

IC50 (MOLM13): 24 nM
IC50 (MV4-11): 18 nM
SMILES: COCCCNC(=O)Nc1ccc(Oc2ccnc3cc(OC)c(OC)cc23)cc1 [Compound 24, 1-[4-(6,7-Dimethoxy-quinolin-4-yloxy)-phenyl]-3-(3-methoxy-propyl)-urea]

IC50 (MOLM13): 258 nM
IC50 (MV4-11): 66 nM
SMILES: COc1cc2nccc(Oc3ccc(NC(=O)NCCN(C)C)cc3)c2cc1OC [Compound 25, 1-[4-(6,7-Dimethoxy-quinolin-4-yloxy)-phenyl]-3-(2-dimethylamino-ethyl)-urea]

IC50 (MOLM13): 45 nM
IC50 (MV4-11): 32 nM
SMILES: CNC(=O)Nc1ccc(Oc2ccnc3cc(OC)c(OC)cc23)cc1 [Compound 27, 1-[4-(6,7-Dimethoxy-quinolin-4-yloxy)-phenyl]-3-methyl-urea]

IC50 (MOLM13): 26 nM
IC50 (MV4-11): 19 nM
SMILES: CCNC(=O)Nc1ccc(Oc2ccnc3cc(OC)c(OC)cc23)cc1 [Compound 28, 1-[4-(6,7-Dimethoxy-quinolin-4-yloxy)-phenyl]-3-ethyl-urea]

IC50 (MOLM13): 3 nM
IC50 (MV4-11): 1 nM
SMILES: COc1cc2nccc(Oc3ccc(NC(=O)NCCC(C)C)cc3)c2cc1OC [Compound 29, 1-[4-(6,7-Dimethoxy-quinolin-4-yloxy)-phenyl]-3-(3-methyl-butyl)-urea]

IC50 (MOLM13): 8 nM
IC50 (MV4-11): 4 nM
SMILES: COc1cc2nccc(Oc3ccc(NC(=O)NCC4CCCCC4)cc3)c2cc1OC [Compound 30, 1-Cyclohexylmethyl-3-[4-(6,7-dimethoxy-quinolin-4-yloxy)-phenyl]-urea]

IC50 (MOLM13): 314 nM
IC50 (MV4-11): 201 nM
SMILES: COc1cc2nccc(Oc3ccc(NC(=O)NCC(C)(C)C)cc3)c2cc1OC [Compound 32, 1-[4-(6,7-Dimethoxy-quinolin-4-yloxy)-phenyl]-3-(2,2-dimethyl-propyl)-urea]

IC50 (MOLM13): 2 nM
IC50 (MV4-11): < 1 nM
SMILES: COc1cc2nccc(Oc3ccc(NC(=O)NCCCC(C)C)cc3)c2cc1OC [Compound 34, 1-[4-(6,7-Dimethoxy-quinolin-4-yloxy)-phenyl]-3-(4-methyl-pentyl)-urea]

IC50 (MOLM13): 3 nM
IC50 (MV4-11): < 1 nM
SMILES: COc1cc2nccc(Oc3ccc(NC(=O)NCCCC(C)(C)C)cc3)c2cc1OC [Compound 35, 1-[4-(6,7-Dimethoxy-quinolin-4-yloxy)-phenyl]-3-(4,4-dimethyl-pentyl)-urea]

IC50 (MOLM13): 3 nM
IC50 (MV4-11): < 1 nM
SMILES: COc1cc2nccc(Oc3ccc(NC(=O)NCCC(C)(C)CO)cc3)c2cc1OC [Compound 39, 1-[4-(6,7-Dimethoxy-quinolin-4-yloxy)-phenyl]-3-(4-hydroxy-3,3-dimethyl-butyl)-urea]
